# Read-outs that look alike come from different tables or passages of the source.
# Assays:
# [1] = system: DLD-1 BRCA2−/− cells; experiment: Homologous recombination synthetic lethal inhibition of proliferation, DLD-1 BRCA2-/- (Cell Titre Glo 3D); format: cell-based; details: for IC50: Homo sapiens
# In short: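 Isogenic DLD-1 pair; BRCA2−/− seeded 3,000 cells/mL and read day 12, wt seeded 1,500 cells/mL and read day 7. 10-pt titration (top 10 μM, 3-fold), re-fed with compound day 6, 37 °C/5% CO2. CTG 3D endpoint; IC50 at 50% signal loss.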
# [2] = system: DLD-1 cells; experiment: Inhibition of proliferation, DLD-1 BRCA2 wt control (Cell Titre Glo 3D); format: cell-based; details: for IC50: Homo sapiens
# Text: This assay identifies anti-proliferative effects of POLQ compounds in the homologous recombination deficient colorectal cell line DLD-1 BRCA2−/− over 8-9 population doublings (7 days for DLD-1 and 12 days for DLD-1 BRCA2−/−). DLD1 BRCA2 wt are used as a control to detect cell toxic effects not specific to homologous recombination deficiency.
# DLD-1 BRCA2−/− and DLD-1 cells were kept in continuous culture in Assay Medium (RPMI 1640 phenol red free (Sigma R7509) containing 1% GlutaMAX (Gibco 35050) and 10% Foetal Bovine Serum (Gibco 10270-106)). On the day of the assay cells in culture of ˜80-90% confluent were used. Cell monolayers were washed with 10 mL PBS, then removed and added 2 mL TrypLE Express (Gibco 12604). The cells with TrypLE Express were incubated for 5 minutes in cell culture incubator and then the detached cells resuspend in 15 mL Assay Medium. Cells were counted using a ViCell and the cell images were monitored for clumps of cells, ideally they should be single or <3 cell clusters. The cells were diluted to 3,000 cells/mL of DLD-1 BRCA2−/− and 1,500 cells/mL of DLD-1 in Assay Medium and 100 μL added per well of transparent bottomed, black, tissue culture-treated 96-well plates (CoStar, No. 3904) Assay Ready Plates. The Assay Ready Plates contain a 10 point 10 μM to 0.51 nM dose range with three-fold dilutions in DMSO with a final volume of 100 nL. The plates were incubated at 37° C. with 5% C02 for 6 days. On day 6, 100 μL/well of Assay Medium was added to duplicate Assay Ready Plates. 90 μL of culture medium was removed from the cell plates and replenished with the Assay Media and compounds from the duplicate Assay Ready Plates using the Bravo. The plates were further incubated at 37° C. with 5% CO2. On day 7 the plates containing DLD-1 and Cell Titre Glo 3D (Promega G9683) were equilibrated to room temperature, then 60 μL of Cell Titre Glo 3D was added per well and incubated on a shaking platform for 30 min. Plates were read on the Envision measuring luminescence for 1 second per well. On day 12 the plates containing DLD-1 BRCA2−/− cells and Cell Titre Glo 3D (Promega G9683) were equilibrated to room temperature, then 60 μL Cell Titre Glo 3D added per well and incubated on a shaking platform for 30 min. Plates were read on the Envision measuring luminescence for 1 second per well. The data was exported into a suitable software package (such as Genedata) to perform curve fitting analysis. Inhibition of cell proliferation was expressed as an IC5o value and was determined by calculation of the concentration of compound that was required to give a 50% reduction of the average maximum Total Intensity signal.
# [3] = DLD-1, DLD-1 BRCA2 −/−, mean, read-out: POLQ PD Prolif Lumin BRCA2 −/− mean pIC50 (converted)
# [4] = DLD-1, DLD1 BRCA2 wt, mean, read-out: POLQ PD Prolif Lumin DLD1 mean pIC50 (converted)
# [5] = DLD-1, 288 h, DLD-1 BRCA2−/− cells, 12 days, read-out: POLQ PD Prolif Lumin BRCA2 −/− mean pIC50 (converted)
# [6] = DLD-1, 168 h, DLD-1 BRCA2 wt cells, 7 days, read-out: POLQ PD Prolif Lumin DLD1 mean pIC50 (converted)
smiles,measurement,setting,value
"COc1ccc(C)cc1Cn1c(-c2ccc(OCCC(C)C(=O)O)cc2Cl)nc2c(OC3(C)CC3)ncnc21 (racemic) [Example U1, 4-(3-chloro-4-(9-(2-methoxy-5-methylbenzyl)-6-(1-methylcyclopropoxy)-9H-purin-8-yl)phenoxy)-2-methylbutanoic acid]",IC50,[1]; [3],50.1 nM
same,IC50,[2]; [4],> 10000 nM
"COc1ccc(F)cc1Cn1c(-c2ccc(OCCC(C)C(=O)O)cc2Cl)nc2c(OC3(C)CC3)ncnc21 (racemic) [Example U2, 4-(3-chloro-4-(9-(5-fluoro-2-methoxybenzyl)-6-(1-methylcyclopropoxy)-9H-purin-8-yl)phenoxy)-2-methylbutanoic acid]",IC50,[1]; [3],63.1 nM
same,IC50,[2]; [4],> 10000 nM
"CC(CCOc1ccc(-c2nc3c(OC4(C)CC4)ncnc3n2Cc2cc(Cl)ccc2C#N)c(Cl)c1)C(=O)O (racemic) [Example U9, 4-(3-chloro-4-(9-(5-chloro-2-cyanobenzyl)-6-(1-methylcyclopropoxy)-9H-purin-8-yl)phenoxy)-2-methylbutanoic acid]",IC50,[1]; [3],79.4 nM
same,IC50,[2]; [4],> 10000 nM
"CC(CCOc1ccc(-c2nc3c(OC4(C)CC4)ncnc3n2Cc2c(F)cccc2C#N)c(Cl)c1)C(=O)O (racemic) [Example U13, 4-(3-chloro-4-(9-(2-cyano-6-fluorobenzyl)-6-(1-methylcyclopropoxy)-9H-purin-8-yl)phenoxy)-2-methylbutanoic acid]",IC50,[1]; [3],3160 nM
same,IC50,[2]; [4],> 10000 nM
"COc1ccc(C#N)cc1Cn1c(-c2ccc(OCCC(C)C(=O)O)cc2Cl)nc2c(OC3(C)CC3)ncnc21 (racemic) [Example U14, 4-(3-chloro-4-(9-(5-cyano-2-methoxybenzyl)-6-(1-methylcyclopropoxy)-9H-purin-8-yl)phenoxy)-2-methylbutanoic acid]",IC50,[1]; [3],398 nM
same,IC50,[2]; [4],> 10000 nM
"COc1ccc(Cl)cc1Cn1c(-c2ccc(OCC(C)CC(=O)O)cc2Cl)nc2c(OC3(C)CC3)ncnc21 (racemic) [Example U42, 4-(3-chloro-4-(9-(5-chloro-2-methoxybenzyl)-6-(1-methylcyclopropoxy)-9H-purin-8-yl)phenoxy)-3-methylbutanoic acid]",IC50,[1]; [3],39.8 nM
same,IC50,[2]; [4],> 10000 nM
"COc1ccc(Cl)cc1Cn1c(-c2cccc(CCCC(C)C(=O)O)c2Cl)nc2c(OC3(C)CC3)ncnc21 (racemic) [Example U55, 5-(2-chloro-3-(9-(5-chloro-2-methoxybenzyl)-6-(1-methylcyclopropoxy)-9H-purin-8-yl)phenyl)-2-methylpentanoic acid]",IC50,[1]; [3],126 nM
same,IC50,[2]; [4],> 10000 nM
"COc1ccc(Cl)cc1Cn1c(-c2ccc(CCCC(C)C(=O)O)cc2Cl)nc2c(OC3(C)CC3)ncnc21 (racemic) [Example U56, 5-(3-chloro-4-(9-(5-chloro-2-methoxybenzyl)-6-(1-methylcyclopropoxy)-9H-purin-8-yl)phenyl)-2-methylpentanoic acid]",IC50,[1]; [3],126 nM
same,IC50,[2]; [4],> 10000 nM
"COc1ccc(Cl)c(F)c1Cn1c(-c2ccc(OCCC(C)C(=O)O)cc2Cl)nc2c(OC3(C)CC3)ncnc21 (racemic) [Example U57, 4-(3-chloro-4-(9-(3-chloro-2-fluoro-6-methoxybenzyl)-6-(1-methylcyclopropoxy)-9H-purin-8-yl)phenoxy)-2-methylbutanoic acid]",IC50,[1]; [3],126 nM
same,IC50,[2]; [4],> 10000 nM
"CC(C)Oc1ccc2c(c1)nc(-c1ccc(OCCC3CCCN3C)cc1Cl)n2Cc1ccccc1 (single isomer, unassigned) [Example A8, 1-benzyl-2-(2-chloro-4-(2-(1-methylpyrrolidin-2-yl)ethoxy)phenyl)-5-isopropoxy-1H-benzo[d]imidazole]",IC50,[1]; [5],126 nM
same,IC50,[2]; [6],501 nM
"CC(C)Oc1ccc2c(c1)nc(-c1ccc(OCCC3CCCN3C)cc1Cl)n2Cc1ccccc1 (single isomer, unassigned) [Example A9, 1-benzyl-2-(2-chloro-4-(2-(1-methylpyrrolidin-2-yl)ethoxy)phenyl)-5-isopropoxy-1H-benzo[d]imidazole]",POLQ PD Prolif Lumin BRCA2 −/− mean pIC50,"[1]; DLD-1 BRCA2−/− cells, 12 days",6.7
same,POLQ PD Prolif Lumin DLD1 mean pIC50,"[2]; DLD-1 BRCA2 wt cells, 7 days",6.3
"CC(C)Oc1ccc2c(c1)nc(-c1ccc(OC3CCCN(C)CC3)cc1Cl)n2Cc1ccccc1 (single isomer, unassigned) [Example A10, 1-benzyl-2-(2-chloro-4-((1-methylazepan-4-yl)oxy)phenyl)-5-isopropoxy-1H-benzo[d]imidazole]",IC50,[1]; [5],794 nM
same,IC50,[2]; [6],2510 nM
"CC(C)Oc1ccc2c(c1)nc(-c1ccc(OC3CCCN(C)CC3)cc1Cl)n2Cc1ccccc1 (single isomer, unassigned) [Example A11, 1-benzyl-2-(2-chloro-4-((1-methylazepan-4-yl)oxy)phenyl)-5-isopropoxy-1H-benzo[d]imidazole]",POLQ PD Prolif Lumin BRCA2 −/− mean pIC50,"[1]; DLD-1 BRCA2−/− cells, 12 days",6.1
same,POLQ PD Prolif Lumin DLD1 mean pIC50,"[2]; DLD-1 BRCA2 wt cells, 7 days",5.8
"CN1CCCC1CCOc1ccc(-c2nc3c(OC4(C)CC4)ncnc3n2Cc2ccccc2)c(Cl)c1 (single isomer, unassigned) [Example D3, 9-benzyl-8-(2-chloro-4-(2-(1-methylpyrrolidin-2-yl)ethoxy)phenyl)-6-(1-methylcyclopropoxy)-9H-purine]",IC50,[1]; [5],63.1 nM
same,POLQ PD Prolif Lumin DLD1 mean pIC50,"[2]; DLD-1 BRCA2 wt cells, 7 days",5.7
"CN1CCCC1CCOc1ccc(-c2nc3c(OC4(C)CC4)ncnc3n2Cc2ccccc2)c(Cl)c1 (single isomer, unassigned) [Example D4, 9-benzyl-8-(2-chloro-4-(2-(1-methylpyrrolidin-2-yl)ethoxy)phenyl)-6-(1-methylcyclopropoxy)-9H-purine]",POLQ PD Prolif Lumin BRCA2 −/− mean pIC50,"[1]; DLD-1 BRCA2−/− cells, 12 days",7.3
same,POLQ PD Prolif Lumin DLD1 mean pIC50,"[2]; DLD-1 BRCA2 wt cells, 7 days",6.2
"CN1CCCC(Oc2ccc(-c3nc4c(OC5(C)CC5)ncnc4n3Cc3ccccc3)c(Cl)c2)CC1 (single isomer, unassigned) [Example D13, 9-benzyl-8-(2-chloro-4-((1-methylazepan-4-yl)oxy)phenyl)-6-(1-methylcyclopropoxy)-9H-purine]",IC50,[1]; [5],126 nM
same,IC50,[2]; [6],3980 nM
"CN1CCCC(Oc2ccc(-c3nc4c(OC5(C)CC5)ncnc4n3Cc3ccccc3)c(Cl)c2)CC1 (single isomer, unassigned) [Example D14, 9-benzyl-8-(2-chloro-4-((1-methylazepan-4-yl)oxy)phenyl)-6-(1-methylcyclopropoxy)-9H-purine]",POLQ PD Prolif Lumin BRCA2 −/− mean pIC50,"[1]; DLD-1 BRCA2−/− cells, 12 days",7.0
same,POLQ PD Prolif Lumin DLD1 mean pIC50,"[2]; DLD-1 BRCA2 wt cells, 7 days",5.4
"CC(Cc1ccccn1)n1c(-c2ccc(OCCN3CCNCC3)cc2Cl)nc2c(OC3(C)CC3)ncnc21 (single isomer, unassigned) [Example S8, 8-(2-chloro-4-(2-(piperazin-1-yl)ethoxy)phenyl)-6-(1-methylcyclopropoxy)-9-(1-(pyridin-2-yl)propan-2-yl)-9H-purine]",POLQ PD Prolif Lumin BRCA2 −/− mean pIC50,"[1]; DLD-1 BRCA2−/− cells, 12 days",5.0
same,IC50,[2]; [6],> 10000 nM
"Cc1cnc(Cn2c(-c3ccc(OC4CCCNCC4)cc3Cl)nc3c(OC4(C)CC4)ncnc32)s1 (single isomer, unassigned) [Example T242, 2-((8-(4-(azepan-4-yloxy)-2-chlorophenyl)-6-(1-methylcyclopropoxy)-9H-purin-9-yl)methyl)-5-methylthiazole]",IC50,"[1]; DLD-1, DLD-1 BRCA2-/- proliferation, column head only partly shown, read-out: POLQ PD Prolif Lumin (converted)",794 nM
same,IC50,"[2]; DLD-1, DLD-1 BRCA2 wt control proliferation, column head only partly shown, read-out: POLQ PD Prolif Lumin (converted)",> 10000 nM
"Cc1cnc(Cn2c(-c3ccc(OC4CCCNCC4)cc3Cl)nc3c(OC4(C)CC4)ncnc32)s1 (single isomer, unassigned) [Example T243, 2-((8-(4-(azepan-4-yloxy)-2-chlorophenyl)-6-(1-methylcyclopropoxy)-9H-purin-9-yl)methyl)-5-methylthiazole]",POLQ PD Prolif Lumin,"[1]; DLD-1 BRCA2-/- proliferation, column head only partly shown",6.3
same,POLQ PD Prolif Lumin,"[2]; DLD-1 BRCA2 wt control proliferation, column head only partly shown",<5.0

# From US20250195530A1, “POLQ INHIBITORS” (ASTRAZENECA AB, priority 2022, published 2025)
